Measured values from patent US20240366555A1, “SELECTIVE MTORC2 INHIBITOR AND USES THEREOF” (ALIAD BIOPHARMA, priority 2021, published 2024).
Like-named read-outs stand apart in the source and are kept apart here.

Tests used:
Assay type in all cases: cell-based
[1] = biological target: T1, mTORC2 located in late endosome of dendritic spines (Rattus norvegicus, UniProt P42346); assay: LocaTOR2 assay-immunofluorescent staining in primary cultured cerebral neurons (mGluR-dependent mTORC2 activation); settings: neurons pretreated with norathyriol; FIG. 11b
T1 construct: endogenous in cells; host or cells: primary cultured cerebral neurons from SD-rat E16 embryos, transduced by lentivirus only with mCherry-FRB-AKT2 and Rab7-FKBP
Source text: By combining Loca-TOR2 assay and immunofluorescence staining, changes in mTORC2 activity located in the late endosome during the induction process of long term depression (LTD) occurring in dendritic spines of primarily cultured cerebral neurons were investigated, and the inhibitory effect of norathyriol on these changes was investigated.
Specifically, mCherry-FRB-AKT2 and Rab7-FKBP were introduced using a lentiviral vector on the primarily cultured cerebral neuron on the DIV5 day, and AP21967 was treated on the DIV17 day to induce binding of FRB and FKBP, and thereby, mCherry-FRB-AKT2 was located in the late endosome. After that, DHPG, which is an mGluR agonist inducing long-term depression, was treated. […] In addition, by measuring Ser473 phosphorylation staining of mCherry-FRB-AKT2 overlapped with PSD-95 staining, which is a protein located in dendritic spines, by immunofluorescent staining, changes in mTORC2 activity located in the late endosome in the dendritic spines can be investigated. After staining using a phospho-Ser473 AKT antibody by immunofluorescent staining, the degree of AKT Ser473 phosphorylation was quantified by counting the number of each fluorescent puncta larger than 0.4 μm or more in size in the dendrites (green). In addition, the dendritic spines were observed by staining with PSD95 antibody (yellow), and the location of mCherry-FRB-AKT2 was investigated by observing mCherry fluorescence (cherry color).
SD-rat gestational age 16-day mice (Orient Bio) were purchased and the mice were anesthetized with CO2 and then embryos were taken out. Until the forebrain was isolated and the meninges were removed, it was performed by the same method as the hippocampal culture, and when the cerebrum was isolated, the dorsal cortex or ventral cortex was cut with a bended syringe needle, and it was collected in new HBSS. The tissue isolated and collected was transferred to a 15 ml tube with a Pasteur pipette, and then in order to remove the remaining meninges and blood vessels, and the like, 2 ml HBSS and 0.25% trypsin of 2 ml were added, and it was reacted in a 37° C. shaker for 10-15 minutes. The cells were settled and the supernatant was removed leaving 1-2 ml, and then trypsin was inactivated by adding DMEM comprising the equal amount of 20% FBS. After centrifugation at 700 rpm for 15 minutes, the supernatant was discarded all and the collected tissue was released, and then Neurobasal culture medium (+glutamate) of 2 ml was added, and titrated with a pipette, and the cells were isolated by changing to a pipette with a narrow end. […] The number of cells was measured with a hemocytometer, and then the cells were seeded in a coated culture dish. […]

Arc protein expression = assay: mGluR-dependent Arc protein expression in cerebral neurons
Procedure: When mGluR is activated in dendritic spines of cerebral neurons, Arc protein is synthesized, and the Arc protein promotes endocytosis of an AMPA receptor to form LTD.
Specifically, DHPG was treated to cerebral neurons, which were obtained by primary culture of white mouse embryo E16 cerebral regions and differentiated for […] (DIV21), for 5 minutes or 10 minutes to activate mGluR. As an Arc antibody, Arc protein (green) and PSD95 (red), which is a marker antibody of postsynaptic density of a synapse, were under
After double immunofluorescent staining of Arc protein with an Arc antidody (green) and PSD95, a marker of postsynaptic density of synapse, with an PSD95 antibody (red), Arc expression in dendritic spines was quantified as the number of Arc+PSD95 double stained puncta per 20 μm neurite length by confocal scanning microscopic scanning.

mTORC2 = mTORC2 (Homo sapiens, UniProt P42345); assay: LocaTOR2 assay in A549 cells (FRB-AKT2 Ser473 phosphorylation); design: endogenous in cells; host or cells: A549 (transfected only with the FKBP-recruiter and the FRB-AKT2 reporter); settings: for IC50: FIG. 9g
Source text: mTORC2 is located in the cell membrane, endosome, ER and mitochondrial membrane. mTORC2 forms an mTORC2 complex as an activated form of ras (ras-GTP) operates as a scaffold in the cell membrane, whereas it forms an mTORC2 complex as mLST8 operates as a scaffold in the endosome. By this difference, the mTORC2 inhibitory effect of norathyriol may be shown differently depending on the subcellular compartment where mTORC2 is located. In order to investigate the mTORC2 inhibitory effect of norathyriol depending on the subcellular compartment location, in vivo LocaTOR2 assay was performed (Ebner et al. (2017) J. Cell Biol. 216:343-353). After introducing FKBP-recruiter selectively located in the membrane of the subcellular compartment and FRB^T2098L-AKT2 which is an mTORC2 substrate, AP21967 was treated for 40 minutes to induce binding between the FKBP-recruiter and FRB-AKT2, and FRB-AKT2 was moved to a specific subcellular compartment. In addition, the degree of phosphorylation of Ser473 of FRB-Akt by mTORC2 located in the site thereof was investigated by immunoblot analysis.

FRB-AKT2 Ser473 phosphorylation, mitochondria (mTORC2; A549, Bcl-XL-FKBP recruiter, FIG. 9e): reduced | FRB-AKT2 Ser473 phosphorylation, mTORC2 located in cell membrane (mTORC2; A549, KRas4B^C30-FKBP recruiter, AP21967, norathyriol at 30 μM and 60 μM, FIG. 9a): not reduced | FRB-AKT2 Ser473 phosphorylation, mTORC2 located in early endosome (mTORC2; A549, Rab5-FKBP recruiter, FIG. 9b): reduced at a significant level | FRB-AKT2 Ser473 phosphorylation, mTORC2 located in late endosome (mTORC2; A549, Rab7-FKBP recruiter, FIG. 9c): reduced at a significant level | FRB-AKT2 Ser473 phosphorylation, mTORC2 located in recycling endosome (mTORC2; A549, Rab11-FKBP recruiter, FIG. 9d): reduced at a significant level | FRB-AKT2 Ser473 phosphorylation, ER (mTORC2; A549, TcRb-FKBP recruiter, FIG. 9f): reduced | IC50 (mTORC2; mTORC2 located in cell membrane (plasma membrane), read-out: IC50, mTORC2, PM): > 60 µM | IC50 (mTORC2; mTORC2 located in early endosome, read-out: IC50, mTORC2, EE): < 30 µM | IC50 (mTORC2; mTORC2 located in late endosome, read-out: IC50, mTORC2, LE): < 30 µM | IC50 (mTORC2; mTORC2 located in recycling endosome, read-out: IC50, mTORC2, RE): 40 µM
Structure (SMILES): O=c1c2cc(O)c(O)cc2oc2cc(O)cc(O)c12 [norathyriol, 1,3,6,7-tetrahydroxy-9H-xanthen-9-one]
AKT-Ser473 phosphorylation induced by DHPG [1]: measured similarly to the control group level | increase of Arc protein synthesis (immunoblot of cell lysate) (Arc protein expression; DHPG-induced, FIG. 12b): inhibited in a dose-dependent manner | Arc synthesis in dendritic spines (immunofluorescent staining) (Arc protein expression; pretreated for 2 hours before treating DHPG, FIG. 12a): the increase of Arc synthesis by DHPG was not found
